Source: US6524625B2, “Physiologically active extract obtained from indigo plant polygonum tinctorium” (Kabushiki Kaisha Hayashibara Seibutsu Kagaku Kenkyuto, priority 1998, dated 2003)
Values after ≈ are worked out from the molar mass of the structure shown.

Experiments:
[1] = test system: C6 cells; assay: Apoptosis controlling action, propidium iodide flow cytometry; format: cell-based, rat; conditions: C6 cells (1 × 10^5 cells/ml)
Procedure: The solution was distributed to a microplate in one milliliter per well, and the solution in each well was diluted in series with a fresh preparation of the same medium as used in the above.
HL-60 cells, ATCC CCL-240, derived from a patient with acute promyelocytic leukemia; U-937 cells, ATCC CRL-1593.2, derived from a patient with human histiocytic lymphoma; HGC-27 cells, RCB0500, derived from a patient with gastric cancer; HLC-1 cells, RCB0083, derived from a patient with lung adenocarcinoma; and C6 cells, ATCC CCL-107, derived from rat glial tumor, were respectively suspended in RPMI1640 medium (pH 7.2) to give a cell density of 1×10^6 cells/ml or 2×10^5 cells/ml. To the microplate, containing a one milliliter dilution of 20, 10 or 5.0 μg/ml of Compound 1, was added one milliliter per well of either of the above cell suspensions and used for test systems. All the test systems were made duplex and respectively subjected to 24- and 48-hour incubations in a 5 v/v % CO2 incubator at 37° C. A system free of Compound 1 was provided and treated similarly as above and used for control.
According to the method by I. Nicoletti et al. in Journal of Immunological Methods, Vol. 139, pp. 271-279 (1991), the apoptosis-induced cells in the test systems and control were stained by propidium iodide and determined for the percentage of the stained cells to the total cells in such a manner that transferring each of the cultures to polypropylene tubes, centrifuging the tubes, removing the resulting supernatants, washing the cells' sediments with phosphate buffered saline containing 0.3 v/v % calf serum albumin, and further centrifuging the washed cells to remove supernatants. The newly formed sediments were respectively mixed with 50 μg/ml of propidium iodide commercialized by Sigma Chemical Company, St. Louis, Mo., USA, 0.1 w/v % sodium citrate, and0.1 w/v % “TRITON X-100”, a surfactant commercialized by Sigma Chemical Company, St. Louis, Mo., USA, in respective volumes of 1.5 ml to stain the cells by propidium iodide. The stained cells were stored at 4° C. in the dark overnight. The stained cells of each test system were analyzed on “EPICS PROFILE II”, a flow cytometry commercialized by Beckman Coulter, Inc., CA, USA. Based on the data the percentage of the stained cells to the total cells in each test system was measured for apoptosis occurrence.

[2] = test system: Pseudomonas aeruginosa (IFO 3453); assay: Antiseptic action: MIC, agar plate dilution method; format: cell-based; conditions: Pseudomonas aeruginosa, IFO3453, read-out: Minimum inhibitory concentration
[3] = test system: HL-60 cells, HGC-27 cells, HLC-1 cells; assay: Antitumor action, comparison over the tumor cells of Table 10; format: cell-based, human; conditions: from the 50% growth inhibitory concentrations of Table 10
Source text: Solutions in each well were serially diluted with a fresh preparation of the same RPMI1640 medium (pH 7.2) as used in the above.
HL-60 cells (ATCC CCL-240) derived from a patient with acute promyelocytic leukemia, HGC-27 cells (RCB0500) derived from a patient with gastric cancer, and HLC-1 cells (RCB0083) derived from a patient with lung adenocarcinoma were respectively suspended in fresh preparations of the same RPMI1640 medium (pH 7.2) as used in the above to give respective cell concentrations of 4×10^5 cells/ml, 4×10^5 cells/ml, and 2×10^6 cells/ml. Each cell suspension was distributed to a microplate in a volume of 50 μl/well and incubated at 37° C. for 48 hours in a 5 v/v % CO2 incubator. To each microplate, a 25 v/v % aqueous glutaraldehyde solution was added in a volume of 20 μl/well, and the microplate was allowed to stand for 15 min to fix the cells. Then, the cells adhered to the wells were washed with water, admixed with a 0.05 w/v % aqueous methylene blue solution in a volume of 100 μl/well, and further allowed to stand for 15 min to stain the cells. Thereafter, an excessive amount of the staining solution was removed from the wells by washing with water, and the cells were dried, admixed with 300 μl/well of 0.33 N hydrochloric acid, stirred sufficiently, and measured for absorption at a wavelength of 620 nm. […]

[4] = test system: vesicular stomatitis virus (VSV); assay: microbe, parasite or virus in culture; format: cell-based; conditions: L929, 24 h, read-out: 50% Growth inhibitory concentration
[5] = test system: Bacillus cereus (IFO 3466); assay: Antiseptic action: MIC, agar plate dilution method; format: cell-based; conditions: Bacillus cereus, IFO3466, read-out: Minimum inhibitory concentration

Question: With `O=C1c2ccccc2-n2c1nc1ccccc1c2=O` [Compound 1, 6,12-dihydro-6,12-dioxoindolo[2,1-b]quinazoline] as the molecule, how does the Apoptosis occurrence ([1]; 24 hours, 2.5 μg/ml, control 0.3) read?
Answer: Its Apoptosis occurrence is 15.9%.

Question: And the Apoptosis occurrence ([1]; 24 hours, 5.0 μg/ml, control 0.3)?
Answer: The Apoptosis occurrence was 18.4%.

Question: What about the Apoptosis occurrence ([1]; 24 hours, 10 μg/ml, control 0.3) of the same molecule?
Answer: Its Apoptosis occurrence is 27.6%.

Question: What about the Apoptosis occurrence ([1]; 48 hours, 2.5 μg/ml, control 0.4) of the same molecule?
Answer: Its Apoptosis occurrence is 38.4%.

Question: And the Apoptosis occurrence ([1]; 48 hours, 5.0 μg/ml, control 0.4)?
Answer: Its Apoptosis occurrence is 64.8%.

Question: What about the Apoptosis occurrence ([1]; 48 hours, 10 μg/ml, control 0.4) of the same molecule?
Answer: The Apoptosis occurrence was 67.1%.

Question: What about the MIC [2] of the same molecule?
Answer: Its MIC is 39 µg/mL (≈ 157 µM).

Question: And the “Antitumor action relative to Compound 2” value [3]?
Answer: The value was no less than 10 times.

Question: What about the IC50 [4] of the same molecule?
Answer: The IC50 was 13 µg/mL (≈ 52.4 µM).

Question: What about the MIC [5] of the same molecule?
Answer: The MIC was 39 µg/mL (≈ 157 µM).
